What all share (format): cell-based, human
The subject of assay [1] is Me45 metastatic melanoma cells. Description: MTT cell viability assay, Me45. The settings on record: 72 h; for IC50: Homo sapiens, MTT, 50 to 400 μM, mean ± SD; for toxicity / cell growth inhibition: Me45, 50 to 400 μM. The text has this:
(§1) Three malignant melanoma cell lines (Me45, 1205-Lu and 451-Lu; obtained from the collection of the Centre of Oncology, Gliwice, Poland), neonatal human dermal fibroblast (NHDF; Lonza, Basel, Switzerland) and human colorectal adenocarcinoma cells (Caco-2; ATCC, Manassas, VA, USA) were used in the studies. The human malignant melanoma (Me45) cell line (derived from a lymph node metastasis of skin melanoma) was established in 1997 at the Radiobiology Department of the Centre of Oncology in Gliwice. 1205-Lu and 451-Lu cell lines were derived from human melanoma metastases to lungs of immunodeficient mice. The cells were cultivated in the medium DMEM-F12 (PAA, Warsaw, Poland) supplemented with 10% (for Me45, 1205-Lu and 451-Lu and NHDF) or 20% (Caco-2) of fetal bovine serum (FBS, Eurx, Gdansk, Poland). In addition, medium for Caco-2 cells contained Non-essential Amino Acid Solution (1×) (Sigma-Aldrich, Poznan, Poland). All cell lines were grown in the presence of 1% of antibiotics (10,000 μg/mL streptomycin and 10,000 units/mL penicillin; Sigma-Aldrich, Poznan, Poland), at 37 °C in humidified atmosphere with 5% CO2 under standard conditions. All experimental procedures were carried out in log-phase of cell growth. During some experiments melanoma cells were irradiated with X-rays at the dose of 2 Gy at the 24th hour of the incubation. Ionizing radiation was applied using a laboratory X-Cell 140 irradiator (Kubtec, Bridgeport, CT, USA).
(§2) Cells (Me45, 1205-Lu, 451-Lu and NHDF) were seeded on 96-well plates (20,000 cells/mL) 24 h before the experiment. One day later, fresh media containing tested compounds were added. The appropriate control, containing ethanol:DMSO (v/v 1:1) in fresh medium, was also prepared. The plates were incubated for a given time (72 h for Me45, 1205-Lu, 451-Lu and NHDF; 2 h for Caco-2) at 37 °C in humidified atmosphere with 5% CO2. After incubation, the medium was removed and cells were washed with physiological saline (PBS; PAA, Warsaw, Poland). In the next step, the cells were incubated with MTT (3-[4,5-dimethylthiazol-2-yl]-2,5-diphenyltetrazolium bromide, Sigma-Aldrich, Poznan, Poland) (solution of 0.5 mg/mL in RPMI 1640 without phenol red) for 2 h. Then, the MTT solution was removed and the formazan crystals were dissolved in the mixture isopropanol:HCl (v/v 1:0.04; both purchased from Sigma-Aldrich, Poznan, Poland). The absorbance of the obtained product was read at 570 nm using a microplate reader (Epoch; BioTek, Winooski, VT, USA). Survival rate was expressed as the percentage of cell survival and calculated from the ratio (A570 of treated cells/A570 of control cells) × 100%. The experiments were repeated three times.

Assay [2] relates to 1205-Lu cells. The assay can be described thus: Pro-apoptotic activity in combination with ionizing radiation (2 Gy), 1205-Lu. The settings on record: 100 µM, 48 h, X-rays 2 Gy at the 24th hour. As to the method:
In the next step, pilot experiments on the pro-apoptotic activity of phenolic acid-PC conjugates in combination with ionizing radiation (IR) were performed. […] The time of incubation with a given compound was reduced to 48 h. X-rays at the dose of 2 Gy were applied at the 24th hour of incubation.
Three malignant melanoma cell lines (Me45, 1205-Lu and 451-Lu; obtained from the collection of the Centre of Oncology, Gliwice, Poland), neonatal human dermal fibroblast (NHDF; Lonza, Basel, Switzerland) and human colorectal adenocarcinoma cells (Caco-2; ATCC, Manassas, VA, USA) were used in the studies. […]
The studies of cell cycle, apoptosis and intracellular level of ROS were performed using the flow cytometry method. […] The apoptosis was measured using an Annexin-V apoptosis assay (BioLegend, San Diego, CA, USA). […] The Annexin-V binding buffer and propidium iodide (PI) solution (100 μg/mL; Sigma-Aldrich, Poznan, Poland) were then added and the samples were stored on ice till they were measured.
(§3) Cytometric analyses were performed immediately using an Aria III flow cytometer (Becton Dickinson, Franklin Lakes, NJ, USA) with FITC configuration (488 nm excitation; emission, LP mirror 503, BP filter 530/30) or with PE configuration (547 nm excitation; emission, 585 nm) and at least 10,000 cells were counted.

Assay [3] relates to 451-Lu metastatic melanoma cells. The assay can be described thus: MTT cell viability assay, 451-Lu. The settings on record: 72 h, 50 to 400 μM; for IC50: Homo sapiens, 451Lu, MTT, mean ± SD; for toxicity / cell growth inhibition: 451-Lu.
Excerpt: as §1, §2

The test system of assay [4] is normal skin fibroblasts NHDF. Description: MTT cell viability assay, NHDF. The settings on record: 72 h, 50 to 400 μM; for IC50: Homo sapiens, MTT, mean ± SD.
Excerpt: as §1, §2

In assay [5] the test system is Me45 cells. The assay can be described thus: Cell cycle analysis (PI, flow cytometry), Me45. The settings on record: Me45, 100 µM, 72 h, vs untreated control. As to the method:
(§4) For cell cycle analysis, harvested cells were centrifuged (1500 rpm, 3 min). After supernatant removal, cells were fixed with a hypotonic buffer, containing PI at 100 µg/mL in PBS, 5 mg/l of citric acid, 1:9 Triton-X solution, 100 µg/mL of RNase in PBS (Sigma-Aldrich, Poznan, Poland). Probes were incubated for 20 min at room temperature in the dark, then stored on ice till they were measured.
as §3

For assay [6], the system named is 1205-Lu metastatic melanoma cells. Description: MTT cell viability assay, 1205-Lu. The settings on record: 72 h, 50 to 400 μM; for IC50: Homo sapiens, 1205Lu, MTT, mean ± SD; for toxicity / cell growth inhibition: 1205-Lu.
Excerpt: as §1, §2

Assay [7] has as its system 451-Lu cells. The assay can be described thus: Annexin-V/PI apoptosis assay, 451-Lu. The settings on record: 100 µM, 72 h. The method, then:
(§5) The studies of cell cycle, apoptosis and intracellular level of ROS were performed using the flow cytometry method. For the apoptosis assay, the cells were harvested and centrifuged (1500 rpm, 3 min). The apoptosis was measured using an Annexin-V apoptosis assay (BioLegend, San Diego, CA, USA). After supernatant removal, the cells were washed with PBS and centrifuged again. The pellets of cells were suspended in 50 μL of cold Annexin-V binding buffer and stained with FITC-labeled Annexin-V for 30 min at 37 °C in the dark. The Annexin-V binding buffer and propidium iodide (PI) solution (100 μg/mL; Sigma-Aldrich, Poznan, Poland) were then added and the samples were stored on ice till they were measured.
as §3

The subject of assay [8] is 1205-Lu cells. Description: Annexin-V/PI apoptosis assay, 1205-Lu. The settings on record: 100 µM. As to the method: as §5, §3
Assay [9] deals with Me45 cells. The assay can be described thus: Annexin-V/PI apoptosis assay, Me45. The settings on record: Me45, 100 µM, 72 h. As to the method:
as §5, §3

Another assay deals with 1205-Lu melanoma cells. Description: Intracellular ROS formation (DCFH-DA, flow cytometry), 1205-Lu. The settings on record: 72 h, DCF fluorescence. As to the method:
(§6) The experiments on ROS content were performed after 72 h of incubation with the given compounds. The cells were harvested and centrifuged (1500 rpm, 3 min), washed with PBS and centrifuged again. The pellet was resuspended in culture medium and a cell-permeable non-fluorescent probe 2′,7′-dichlorofluorescin diacetate (DCFH-DA, Sigma-Aldrich, Poznan, Poland) at a final concentration of 30 µM was added. The samples were incubated in darkness for 30 min at 37 °C, then stored on ice till they were measured. DCFH-DA is hydrolyzed by cellular esterases into its polar form DCFH. Due to the intracellular ROS and other peroxides, DCFH undergoes oxidation and turns into highly fluorescent compond 2′,7′-dichlorofluorescein (DCF).
as §3

In a further assay the test system is 451-Lu melanoma cells. The assay can be described thus: Intracellular ROS formation (DCFH-DA, flow cytometry), 451-Lu. The settings on record: 72 h, DCF fluorescence. The method, then: as §6, §3
The next assay deals with Me45 melanoma cells. Description: Intracellular ROS formation (DCFH-DA, flow cytometry), Me45. The settings on record: Me45, 72 h, DCF fluorescence. As to the method:
as §6, §3

In assay [10] the test system is 451-Lu cells. The assay can be described thus: Cell cycle analysis (PI, flow cytometry), 451-Lu. The settings on record: 100 µM, 72 h, vs untreated control. The method, then:
as §4, §3

For `CCCCCCCCCCCCCCCC(=O)O[C@H](COC(=O)c1ccc(OC)c(OC)c1)COP(=O)([O-])OCC[N+](C)(C)C` [8b, 1-veratroyl-2-palmitoyl-sn-glycero-3-phosphocholine], the IC50 in assay [1] was 126 ± 3.7 µM; in [3] it was 82.2 ± 14.3 µM; in assay [4], 150 ± 17.9 µM; in [6] it was 73.2 ± 9.3 µM. Besides, the “pro-apoptotic effect in combination with ionizing radiation” value in the assay on 1205-Lu cells [2] was “most effective combinations”. For the same molecule, the “cell cycle phase distribution” value in the assay on Me45 cells [5] is on record as “Increased fraction of Me45 cells in G2/M phase”.

As for `CCCCCCCCCCCCCCCC(=O)O[C@H](COC(=O)c1ccc(OC)cc1)COP(=O)([O-])OCC[N+](C)(C)C` [8a, 1-anisoyl-2-palmitoyl-sn-glycero-3-phosphocholine], the IC50 in [1] stood at 131 ± 9.9 µM; in assay [3], 54.1 ± 6.7 µM; in assay [4] it was 198 ± 20.8 µM; in assay [6] it was 62.2 ± 7.1 µM. In addition, the “pro-apoptotic effect in combination with ionizing radiation” value with 1205-Lu cells [2] is “most effective combinations”.

In the case of `COc1ccc(C(=O)O)cc1` [1a, 4-methoxybenzoic acid, reference compound], the “induction of apoptosis” value in the assay on 451-Lu cells [7], in the assay with 1205-Lu cells [8] (72 h) and with Me45 cells [9] was “no ability to induce apoptosis” each time. Also, the “toxicity / cell growth inhibition” value in [1], in assay [3], in [4] and in [6] was “non-toxic” each time.

For `COc1ccc(C(=O)O)cc1OC` [1b, 3,4-dimethoxybenzoic acid, reference compound], the “induction of apoptosis” value in the assay on 451-Lu cells [7], in the assay on 1205-Lu cells [8] (72 h) and in the assay on Me45 cells [9] was “no ability to induce apoptosis” each time. The “toxicity / cell growth inhibition” value in assay [1], in assay [3], in assay [4] and in [6] was “non-toxic” each time.

Consider `COc1ccc(C(=O)OC[C@H](COP(=O)([O-])OCC[N+](C)(C)C)OC(=O)c2ccc(OC)cc2)cc1` [3a, 1,2-dianisoyl-sn-glycero-3-phosphocholine], for which the “fraction of necrotic cells” value in the assay on 451-Lu cells [7] and with 1205-Lu cells [8] (72 h) was “significant increase in the fraction of necrotic cells” in each case. The “induction of apoptosis” value in the assay on 451-Lu cells [7], in the assay on 1205-Lu cells [8] (72 h) and with Me45 cells [9] was “significant potency to induce apoptosis” in each case. The IC50 was found to be 111 ± 4.5 µM in assay [1], 47.5 ± 2.7 µM in [3], 238 ± 17.8 µM in assay [4] and 82 ± 10.5 µM in assay [6]. Further, the “fraction of cells in the early stage of apoptosis” value in the assay with 1205-Lu cells [8] (48 h of incubation, without irradiation) is reported as ~ 17%. Further, the “reactive oxygen species formation (antioxidant activity, words)” value in the assay on 1205-Lu melanoma cells, in the assay on 451-Lu melanoma cells and in the assay with Me45 melanoma cells was “strongest antioxidant” each time. Also, the “cell cycle phase distribution” value in the assay with 451-Lu cells [10] is given as “increased the fraction of melanoma cells in the sub-G1 phase”.

Regarding `CCCCCCCCCCCCCCCC(=O)OC[C@H](COP(=O)([O-])OCC[N+](C)(C)C)OC(=O)c1ccc(OC)c(OC)c1` [5b, 1-palmitoyl-2-veratroyl-sn-glycero-3-phosphocholine], the half-inhibitory concentration (IC50) in assay [1] is 109 ± 7.6 µM; in assay [3], 137 ± 7.7 µM; in assay [4], 185 ± 13.7 µM; in assay [6] it was 102 ± 4.1 µM. Besides, the “cell cycle phase distribution” value is recorded as “Increased fraction of Me45 cells in G2/M phase” in the assay with Me45 cells [5] and “increased the fraction of melanoma cells in the sub-G1 phase” in the assay with 451-Lu cells [10]. Besides, the “induction of apoptosis” value with Me45 cells [9] is “significantly higher fractions of Me45 cells in the early and late stages of apoptosis”.

On to `CCCCCCCCCCCCCCCC(=O)OC[C@H](COP(=O)([O-])OCC[N+](C)(C)C)OC(=O)c1ccc(OC)cc1` [5a, 1-palmitoyl-2-anisoyl-sn-glycero-3-phosphocholine], for which the “induction of apoptosis” value in the assay on 451-Lu cells [7] and in the assay with Me45 cells [9] was “slightly increased” each time. The IC50 was 122 ± 10 µM in assay [1], 97.7 ± 8 µM in [3], 249 ± 20.9 µM in assay [4] and 71.3 ± 7.7 µM in assay [6].

For the origin of these results see publication PMC8395125, “Conjugation with Phospholipids as a Modification Increasing Anticancer Activity of Phenolic Acids in Metastatic Melanoma—In Vitro and In Silico Studies” (International Journal of Molecular Sciences, 2021).
